This experiment deals with HT29 and Colo205 (human colon carcinoma) and H460 and Calu-6 (nonsmall cell carcinoma) xenograft tumors. Put plainly: Xenograft animal tumor models. In kind it is in vivo. As to conditions: gemcitabine 160 mg/kg i.p., Balb/c (nu/nu) mice. The source says: To test the ability of the Chk1 inhibitors of the invention to enhance the killing of tumors by DNA damaging agents in mice, xenograft tumor models using colon tumor cell lines are established. 5-fluorouracil (5-FU) or gemcitabine can be used as DNA damaging agents. HT29 and Colo205 (human colon carcinoma) and H460 and Calu-6 (nonsmall cell carcinoma) cells can be used to propagate xenograft tumors in 6-8 week old female […] Balb/c (nu/nu) mice. Mice are maintained in a laminar airflow cabinet under pathogen-free conditions and fed sterile food and water ad libitum. Cell lines are grown to subconfluence in RPMI 1640 media supplemented with 10% FBS, 100 U/mL penicillin, 100 μg/mL streptomycin, and 1.5 mM L-glutamine in a 5% CO2 humidified environment. Single cell suspensions are prepared in CMF-PBS, and cell concentration adjusted to 1×10^8 cells/mL. Mice are inoculated subcutaneously (s.c.) on the right flank or right leg with a total of 1×10^7 cells (100 μL). Mice are randomized (5-15 mice/group) into four treatment groups and used when tumors reach a volume of […] (usually 7-11 days post-inoculation). Tumors are measured with […] calipers and tumor volumes are estimated using the empirically derived formula: tumor volume (cm^3)=tumor length (cm) x tumor width (cm)×tumor depth (cm)/3.3. […] Tumor size is monitored every other day for the duration of the experiment.

On to `Nc1ccn([C@@H]2O[C@H](CO)[C@@H](O)C2(F)F)c(=O)n1` [gemcitabine, 2′,2′ difluoro-2′-deoxycytidine], for which the tumor growth entry is listed as “delay in tumor growth”.

Source of the values: patent US20080318974A1, “Compounds Useful for Inhibiting Chk1” (Icos Corporation, priority 2004, published 2008).
